From patent US10947243B2, “Heteroaryl SYK inhibitors” (Boehringer Ingelheim International GmbH, priority 2014, dated 2021)
Read-outs that look alike come from different tables or passages of the source.

Experiments:
[1] = molecular target: Recombinant human Syk (amino acids 342-635) (Homo sapiens (Human), UniProt P43405); assay: Syk Kinase Test (Kinase Glo luminescence); type: biochemical
Protocol: (§1) The output file of the reader is a csv file that contains the well number and measured relative light units (RLU). For data evaluation and calculation, the measurement of the negative control was set as 100% ctrl and the measurement of the positive control was set as 0% ctrl. Based on this values the % value for the measurement of each substance concentration was calculated using an Assay Explorer software (Accelrys). Normally, the % ctrl values calculated are between 0% and 100% values but may also occur outside these limits in individual cases based on variability or compound characteristics. The IC50 values were calculated from the % ctrl values using Assay Explorer software. Calculation: [y=(a−d)/(1+(x/c)^b)+d] a=low value, d=high value; x=conc M; c=IC50 M; b=hill; y=% ctrl.

FLT3 = FLT3 (Homo sapiens (Human), UniProt P36888); assay: FLT3 Kinase Test (Z'-LYTE); type: biochemical
FLT3, sequence (P36888 564-958): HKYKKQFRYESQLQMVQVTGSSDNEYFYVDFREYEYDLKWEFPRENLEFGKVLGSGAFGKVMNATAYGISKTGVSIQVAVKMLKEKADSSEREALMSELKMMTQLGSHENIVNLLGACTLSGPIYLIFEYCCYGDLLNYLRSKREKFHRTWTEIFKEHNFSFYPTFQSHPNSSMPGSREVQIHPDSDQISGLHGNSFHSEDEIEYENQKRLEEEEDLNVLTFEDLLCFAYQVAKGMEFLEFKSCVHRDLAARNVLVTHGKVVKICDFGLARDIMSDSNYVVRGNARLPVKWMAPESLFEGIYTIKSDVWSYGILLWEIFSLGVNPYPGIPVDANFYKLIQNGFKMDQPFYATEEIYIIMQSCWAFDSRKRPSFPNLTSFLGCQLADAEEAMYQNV
Protocol: The activity of FLT3 is measured using the Z′-LYTE™ assay technology from Invitrogen (#PV3191)
The reaction is started by addition of 2.5 μl of the 4×ATP solution.
(§2) Positive controls are reaction mixtures containing no test compound; negative controls (blanks) are reaction mixtures containing no kinase. As a further control, the phosphopeptide solution is added to wells without kinase (=100% phosphorylation control).
The reaction is performed for 1 h at room temperature before 5 μl of the development solution is added. After a further incubation for 1 h at room temperature 5 μl of the stop reagent is added.
The output text file is evaluated in an “MS-Excel-VB-Makro” and “GraphPadPrism” (Version 5) (GraphPad Software Inc.) is used to calculate the results. Data for the inhibition of FLT3 are reported in M. data for the inhibition of the protease are reported in % CTL.

[2] = Human Liver Microsomal Stability Test; type: in vitro ADME; details: human liver microsomes
Protocol: The metabolic degradation for a specific SYK-inhibitor is performed at 37° C. with pooled human liver microsomes (human liver microsomes are commercially available as “BD UltraPool™” by Corning Life Sciences, Fogostraat 12, 1060 LJ Amsterdam, The Netherlands). The final incubation volume of 100 μl per time point contains TRIS buffer pH 7.6 at RT (0.1 M), magnesium chloride (5 mM), microsomal protein (1 mg/ml) and the test compound at a final concentration of 1 μM.
Following a short preincubation period at 37° C., the reaction is initiated by addition of beta-nicotinamide adenine dinucleotide phosphate in its reduced form (NADPH, 1 mM) and terminated by transfering an aliquot into solvent after different time points. Additionally, the NADPH-independent degradation is monitored in incubations without NADPH, terminated at the last time point.
The quenched (terminated) incubations are then pelleted by centrifugation (10000 g, 5 min).
An aliquot of the supernatant is assayed by LC-MS/MS for the remaining amount of parent compound. The half-life (t½ INVITRO) is determined by the slope of the semilogarithmic plot of the concentration-time profile.
The intrinsic clearance (CL_[…]) is calculated by considering the amount of protein in the incubation: CL_[…] [μl/min/mg protein]=(Ln 2/(t½INVITRO [min]*protein content [mg/ml]))*1000
The protein content [mg/ml] was determined with the “Bicinchoninic Acid Kit” of Sigma Aldrich (commercially available).
The upscaled intrinsic Clearance (CL_UP_INT) is calcuated by considering the liver weight [g liver/kg body weight] and the microsomal recovery [mg protein/g liver]: CL_UP_INT [ml/min/kg]=0.001*CL_[…]*liver weight*microsomal recovery • with microsomal recovery=45 mg protein/g liver • with liver weight=25.7 g liver/kg body weight
The percent hepatic blood flow (% Qh) is finally calculated by considering the human liver blood flow Q [ml/min/kg]: % Qh [%]=((Q*CL_UP_INT)/(Q+CL_UP_INT)/Q)*100 • with liver blood flow (Q)=20.7 ml/min/kg.

[3] = molecular target: Recombinant human Aurora B (amino acids 1-344) (Homo sapiens (Human), UniProt Q96GD4); assay: Aurora B Kinase Test (ADP Glo luminescence); type: biochemical
Recombinant human Aurora B (amino acids 1-344), sequence (Q96GD4 whole entry, the tested form may be a part): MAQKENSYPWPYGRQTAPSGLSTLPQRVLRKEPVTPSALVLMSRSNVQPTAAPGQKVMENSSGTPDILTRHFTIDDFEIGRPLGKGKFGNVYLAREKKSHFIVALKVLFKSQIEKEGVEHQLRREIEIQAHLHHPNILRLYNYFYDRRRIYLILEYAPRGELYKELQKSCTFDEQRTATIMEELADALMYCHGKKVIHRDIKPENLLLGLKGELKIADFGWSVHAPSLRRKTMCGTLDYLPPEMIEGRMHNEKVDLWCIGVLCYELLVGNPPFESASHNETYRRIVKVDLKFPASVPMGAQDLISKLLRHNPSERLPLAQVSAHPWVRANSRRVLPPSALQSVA
Protocol: The activity of the Aurora B kinase protein was determined using the ADP Glo® Luminescence Kinase test (Promega; V9103X).
Serial Dilution is done in 1:10 steps in 100% DMSO.
Then 20 μl Kinase detection mix (Detection Buffer #V913B Promega; Kinase Detection Substrate #V914B Promega) were added and incubated for 40 minutes at room temperature.
as §1, with “measured RLU.” for “measured relative light units (RLU).”, “as 0%” for “as 100%”, “as 100%” for “as 0%”, “Calculation: [y=(a−d)/(1+(x/c)^b)+d],” for “Calculation: [y=(a−d)/(1+(x/c)^b)+d]”

Human GSK3beta = Human GSK3beta (Homo sapiens (Human), UniProt P49841); assay: GSK 3β Kinase-Test (Z'-LYTE); type: biochemical; details: comparison compounds, read-out: IC50 in μM (GSK3beta-Inhibition)
Human GSK3beta, sequence (P49841 whole entry): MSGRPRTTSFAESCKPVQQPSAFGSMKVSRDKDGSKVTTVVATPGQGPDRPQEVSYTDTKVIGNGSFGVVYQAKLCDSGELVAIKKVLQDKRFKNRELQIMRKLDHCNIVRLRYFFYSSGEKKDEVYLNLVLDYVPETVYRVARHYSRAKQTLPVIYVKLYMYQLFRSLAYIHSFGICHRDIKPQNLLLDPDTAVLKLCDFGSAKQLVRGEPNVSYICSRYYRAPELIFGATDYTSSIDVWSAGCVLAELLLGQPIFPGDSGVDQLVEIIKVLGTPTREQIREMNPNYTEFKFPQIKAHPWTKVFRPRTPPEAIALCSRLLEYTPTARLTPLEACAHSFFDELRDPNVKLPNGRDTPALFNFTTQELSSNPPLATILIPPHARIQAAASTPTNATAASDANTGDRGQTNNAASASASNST
Protocol: Human GSK3beta (expressed and prified from SF21 cells) is obtained from the University Dundee/Scotland (Dr. James Hastie—Dept. of Biochemistry) in 50 mM Tris (pH7.5); 150 mM NaCl; 0.1 mM EGTA, 270 mM Succrose, 0.1% B-mercaptoethanol, 1 mM benzamidine, 0.2 mM PMSF; sequence see below). The enzyme is diluted to 3.56 μM (168 μg/ml) in enzyme dilution buffer and 6 μl aliquots are stored at −80° C.
The activity of GSK3 kinase protein is measured using the Z′-LYTE™ assay technology from Invitrogen (# PV3324).
The assay is performed in 384 black plates from Corning (#3676) in a final volume of 10 μl by adding 5 μl of kinase peptide mix and 2.5 μl of compound dilution. The reaction is started by addition of 2.5 μl of the 4×ATP solution.
as §2, with “ATP.” for “kinase.”, “kinase and without ATP” for “kinase”, “control). The non inhibited kinase reaction will result in a phosphorylation corresponding to 20%-30% of the phosphorylation control.” for “control).”
The reaction is performed 1 h at room temperature. After 1 h 5 μl of the development solution is added. After a further incubation for 1 h at room temperature 5 μl of the stop reagent is added. Finally the plates are read on a Flex Station II 384 (Molecular Devices).
The output text file is evaluated in an “MS-Excel-VB-Makro” and “GraphPadPrism” (Version 5) (GraphPad Software Inc.) is used to calculate the results. Data for the inhibition of GSK3beta are reported in M. data for the inhibition of the protease are reported in % CTL.

[4] = comparison compounds, Example numbers of WO 2013/014060, read-out: IC50 in μM (SYK-Inhibition)
[5] = comparison compounds, Example numbers of WO 2013/014060, read-out: IC50 in μM (FLT3-Inhibition)
[6] = comparison compounds, Example numbers of WO 2013/014060
[7] = comparison compounds, Example numbers of WO 2013/014060, read-out: IC50 in μM (AURB-Inhibition)
[8] = comparison compounds, Example numbers of WO 2011/092128, read-out: IC50 in μM (SYK-Inhibition)
[9] = comparison compounds, Example numbers of WO 2011/092128, read-out: IC50 in μM (FLT3-Inhibition)
[10] = comparison compounds, Example numbers of WO 2011/092128, read-out: IC50 in μM (AURB-Inhibition)
[11] = compounds of the invention (own Example numbers)
[12] = Example numbers of WO 2013/014060

Molecule	IC50 [1, 4]	IC50 (FLT3; [5])	microsomal stability Cl [% Qh] [2, 6]	IC50 [3, 7]	IC50 (Human GSK3beta; [12])	further results
C[C@@H](Oc1cc(-c2ccc(C3CCN(C)CC3)cc2)cc2nn(C)cc12)[C@H]1CNC(=O)C1 [Example 42, (4R)-4-[(1R)-1-[2-methyl-6-[4-(1-methyl-4-piperidyl)-phenyl]indazol-4-yl]oxyethyl]-pyrrolidin-2-one]	0.002 µM	0.618 µM	<23 % Qh	0.63 µM	–	microsomal stability Cl [% Qh] ([2]; percent hepatic blood flow): <23 % Qh
C[C@@H](Oc1nc(-c2cnn(C3CCCCC3)c2)cc2nn(C)cc12)[C@H]1CNC(=O)C1 [Example 7, (R)-4-((R)-1-(6-(1-cyclohexyl-1H-pyrazol-4-yl)-2-methyl-2H-pyrazolo[4,3-c]pyridin-4-yloxy)ethyl)pyrrolidin-2-one]	–	–	–	–	–	IC50 [1, 8]: 0.002 µM; IC50 (FLT3; [9]): 0.452 µM; microsomal stability Cl [% Qh] ([2]; comparison compounds, Example numbers of WO 2011/092128): 79 % Qh; IC50 [3, 10]: 2.33 µM; IC50 (Human GSK3beta; Example numbers of WO 2011/092128): > 10 µM
COc1ccc(-c2cc3nn(C)cc3c(O[C@H](C)[C@H]3CNC(=O)C3)n2)cc1OC [Example 1, (4R)-4-[(1R)-1-[6-(3,4-Dimethoxyphenyl)-2-methyl-pyrazolo[4,3-c]pyridin-4-yl]oxyethyl]pyrrolidin-2-one]	–	–	–	–	–	IC50 [1, 8]: 0.009 µM; IC50 (FLT3; [9]): 1.53 µM; microsomal stability Cl [% Qh] [2, 11]: <23 % Qh; IC50 [3, 10]: 5.09 µM
(4R)-4-[(1R)-1-[2-methyl-6-(3-methyl-1-tetrahydropyran-4-yl-pyrazol-4-yl)pyrazolo-[4,3-c]pyridin-4-yl]oxyethyl]-pyrrolidin-2-one [Example 79]	–	–	–	–	–	IC50 ([1]; read-out: SYK-inhibiton IC50-value): 0.0364 µM; IC50 (FLT3; read-out: FLT3-inhibition IC50-value): 26.7 µM
Cc1c(-c2cc(O[C@H](C)[C@H]3CNC(=O)C3)c3cccnc3c2)cnn1C [compound 112]	0.006 µM	1.25 µM	<23 % Qh	2.96 µM	> 10 µM	–
C[C@@H](Oc1nc(-c2cnn(C3CCC(F)(F)CC3)c2)cc2nn(C)cc12)[C@H]1CNC(=O)C1 [Example 10, (4R)-4-[(1R)-1-[6-[1-(4,4-Difluorocyclohexyl)pyrazol-4-yl]-2-methyl-pyrazolo[4,3-c]pyridin-4-yl]oxyethyl]pyrrolidin-2-one]	0.001 µM	0.312 µM	57 % Qh	0.271 µM	> 10 µM	–
C[C@@H](Oc1cc(-c2cscn2)cc2nn(C)cc12)[C@H]1CNC(=O)C1 [Example 29, (4R)-4-[(1R)-1-(2-methyl-6-thiazol-4-yl-indazol-4-yl)oxyethyl]pyrrolidin-2-one]	–	–	44 % Qh	–	> 10 µM	IC50 ([3]; read-out: AURB-inhibition IC50-value): > 50 µM; IC50 ([3]; read-out: IC50 in μM (AURB-Inhibition)): 0.293 µM

Continued, in another order:

IC50 [1, 4]	IC50 (FLT3; [5])	microsomal stability Cl [% Qh] [2, 6]	IC50 [3, 7]	Molecule	IC50 (Human GSK3beta; [12])	further results
0.003 µM	0.514 µM	<23 % Qh	0.949 µM	COc1cc(-c2cc3nn(C)cc3c(O[C@H](C)[C@H]3CNC(=O)C3)n2)ccc1OC(C)C [Example 81, (4R)-4-[(1R)-1-[6-(4-isopropoxy-3-methoxy-phenyl)-2-methyl-pyrazolo-[4,3-c]pyridin-4-yl]oxyethyl]-pyrrolidin-2-one]	–	microsomal stability Cl [% Qh] [2, 11]: <23 % Qh
–	0.049 µM	26 % Qh	2.54 µM	CCCn1cc(-c2cc(O[C@H](C)[C@H]3CNC(=O)C3)c3cccnc3c2)cn1 [compound 114]	> 10 µM	–
0.002 µM	0.411 µM	<23 % Qh	0.25 µM	C[C@@H](Oc1nc(-c2ccc(C(F)(F)F)nc2)cc2nn(C)cc12)[C@H]1CNC(=O)C1 [Example 61, (4R)-4-[(1R)-1-[2-methyl-6-[6-(trifluoromethyl)-3-pyridyl]pyrazolo[4,3-c]pyridin-4-yl]oxyethyl]pyrrolidin-2-one]	–	microsomal stability Cl [% Qh] ([2]; percent hepatic blood flow): <23 % Qh
0.001 µM	0.505 µM	37 % Qh	0.308 µM	C[C@@H](Oc1cc(-c2ccc(F)cn2)cc2nn(C)cc12)[C@H]1CNC(=O)C1 [Example 41, (4R)-4-[(1R)-1-[6-(5-fluoro-2-pyridyl)-2-methyl-indazol-4-yl]oxyethyl]pyrrolidin-2-one]	–	microsomal stability Cl [% Qh] ([2]; percent hepatic blood flow): <23 % Qh
0.007 µM	7.39 µM	81 % Qh	16.9 µM	C[C@@H](Oc1nc(-c2cnn(C(C)(C)C)c2)cc2nn(C)cc12)[C@H]1CNC(=O)C1 [Example 2, (4R)-4-[(1R)-1-[6-(1-tert-Butylpyrazol-4-yl)-2-methyl-pyrazolo[4,3-c]pyridin-4-yl]oxyethyl]pyrrolidin-2-one]	–	microsomal stability Cl [% Qh] [2, 11]: <23 % Qh
